Test results reported in US20240246942A1, “KINASE INHIBITORS FOR THE TREATMENT OF NEURODEGENERATIVE DISEASES” (priority 2020, published 2024).

Key:
Test in all cases: biochemical
[1] = molecular target: T1, panel of 374 wild-type kinases (Homo sapiens, UniProt O60674); conditions: read-out: % Enzyme Activity (relative to DMSO controls), JAK2
T1 construct: purchased Reaction Biology Corporation

[2] = molecular target: T2, panel of 374 wild-type kinases (Homo sapiens, UniProt P35916); conditions: read-out: % Enzyme Activity (relative to DMSO controls), FLT4/VEGFR3
T2 construct: purchased Reaction Biology Corporation

[3] = molecular target: T3, panel of 374 wild-type kinases (Homo sapiens, UniProt P51451); conditions: read-out: % Enzyme Activity (relative to DMSO controls), BLK
T3 construct: purchased Reaction Biology Corporation

[4] = molecular target: T4, panel of 374 wild-type kinases (Homo sapiens, UniProt Q13237); conditions: read-out: % Enzyme Activity (relative to DMSO controls), kinase PKG2/PRKG2
T4 construct: purchased Reaction Biology Corporation
T4 sequence (Q13237 1-762): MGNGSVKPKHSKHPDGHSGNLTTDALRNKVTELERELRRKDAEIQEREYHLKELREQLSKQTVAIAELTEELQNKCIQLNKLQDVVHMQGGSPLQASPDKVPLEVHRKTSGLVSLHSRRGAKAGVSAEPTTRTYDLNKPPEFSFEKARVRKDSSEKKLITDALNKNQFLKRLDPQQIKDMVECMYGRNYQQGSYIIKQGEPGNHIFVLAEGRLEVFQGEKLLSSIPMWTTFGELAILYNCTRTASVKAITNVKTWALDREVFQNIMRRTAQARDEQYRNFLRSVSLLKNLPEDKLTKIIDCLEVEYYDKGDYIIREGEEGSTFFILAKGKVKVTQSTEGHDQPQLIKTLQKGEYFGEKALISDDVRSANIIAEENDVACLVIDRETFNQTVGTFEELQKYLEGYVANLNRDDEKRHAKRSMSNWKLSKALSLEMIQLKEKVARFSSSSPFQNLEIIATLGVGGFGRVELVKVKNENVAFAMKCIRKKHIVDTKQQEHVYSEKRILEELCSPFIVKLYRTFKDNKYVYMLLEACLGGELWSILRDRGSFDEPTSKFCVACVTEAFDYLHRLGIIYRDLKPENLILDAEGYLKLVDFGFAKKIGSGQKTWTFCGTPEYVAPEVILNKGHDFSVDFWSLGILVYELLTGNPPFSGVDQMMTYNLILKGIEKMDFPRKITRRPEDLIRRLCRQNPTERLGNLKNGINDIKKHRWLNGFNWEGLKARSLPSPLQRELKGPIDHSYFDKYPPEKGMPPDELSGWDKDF

[5] = molecular target: T5, panel of 374 wild-type kinases (Homo sapiens, UniProt Q15835); conditions: read-out: % Enzyme Activity (relative to DMSO controls), GRK1
T5 construct: purchased Reaction Biology Corporation
T5 sequence (Q15835 1-563): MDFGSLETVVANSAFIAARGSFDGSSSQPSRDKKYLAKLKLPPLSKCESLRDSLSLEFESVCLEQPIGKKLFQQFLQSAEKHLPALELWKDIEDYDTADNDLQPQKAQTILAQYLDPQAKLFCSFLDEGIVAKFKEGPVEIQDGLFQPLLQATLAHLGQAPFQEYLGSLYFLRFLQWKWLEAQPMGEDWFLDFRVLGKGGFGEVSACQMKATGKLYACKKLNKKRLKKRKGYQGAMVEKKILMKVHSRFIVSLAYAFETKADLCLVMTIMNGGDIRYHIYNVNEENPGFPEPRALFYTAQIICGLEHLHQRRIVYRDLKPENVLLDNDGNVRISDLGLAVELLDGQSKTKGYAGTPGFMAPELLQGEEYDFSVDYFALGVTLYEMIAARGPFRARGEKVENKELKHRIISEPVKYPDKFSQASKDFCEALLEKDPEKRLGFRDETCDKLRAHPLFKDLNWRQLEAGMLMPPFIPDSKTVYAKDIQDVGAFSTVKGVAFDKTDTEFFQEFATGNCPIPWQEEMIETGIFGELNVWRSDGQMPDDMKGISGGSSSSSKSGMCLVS

[6] = molecular target: T6, panel of 374 wild-type kinases (Homo sapiens, UniProt Q96RG2); conditions: read-out: % Enzyme Activity (relative to DMSO controls), kinase PASK
T6 construct: purchased Reaction Biology Corporation

[7] = molecular target: T7, panel of 374 wild-type kinases (Homo sapiens, UniProt Q9H2X6); conditions: read-out: % Enzyme Activity (relative to DMSO controls), HIPK2
T7 construct: purchased Reaction Biology Corporation

[8] = molecular target: T8, panel of 374 wild-type kinases (Homo sapiens, UniProt Q9P289); conditions: read-out: % Enzyme Activity (relative to DMSO controls), MST4
T8 construct: purchased Reaction Biology Corporation

[9] = molecular target: T9, panel of 374 wild-type kinases (Homo sapiens, UniProt Q9UHD2); conditions: read-out: % Enzyme Activity (relative to DMSO controls), kinase TBK1
T9 construct: purchased Reaction Biology Corporation
T9 sequence (Q9UHD2 1-729): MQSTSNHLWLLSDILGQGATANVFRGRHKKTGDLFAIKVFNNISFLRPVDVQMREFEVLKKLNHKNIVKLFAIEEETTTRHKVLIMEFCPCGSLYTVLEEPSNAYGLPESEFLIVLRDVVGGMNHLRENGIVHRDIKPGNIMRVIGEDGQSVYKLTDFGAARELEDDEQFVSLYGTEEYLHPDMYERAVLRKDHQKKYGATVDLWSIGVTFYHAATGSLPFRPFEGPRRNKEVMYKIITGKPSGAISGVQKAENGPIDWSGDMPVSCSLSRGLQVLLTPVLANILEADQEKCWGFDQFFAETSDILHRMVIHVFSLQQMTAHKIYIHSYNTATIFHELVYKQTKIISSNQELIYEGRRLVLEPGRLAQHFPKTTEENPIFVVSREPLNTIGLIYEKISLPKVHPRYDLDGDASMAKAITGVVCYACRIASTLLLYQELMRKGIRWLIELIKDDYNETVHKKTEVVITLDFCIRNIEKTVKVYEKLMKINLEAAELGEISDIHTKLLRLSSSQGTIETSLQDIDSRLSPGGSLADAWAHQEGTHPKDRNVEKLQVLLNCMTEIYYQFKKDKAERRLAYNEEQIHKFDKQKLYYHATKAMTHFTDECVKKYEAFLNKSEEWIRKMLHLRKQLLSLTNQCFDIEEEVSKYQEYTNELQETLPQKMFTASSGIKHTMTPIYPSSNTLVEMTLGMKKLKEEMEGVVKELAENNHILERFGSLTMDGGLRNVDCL

[10] = molecular target: T10, panel of 374 wild-type kinases (Homo sapiens, UniProt Q9Y2K2); conditions: read-out: % Enzyme Activity (relative to DMSO controls), kinase SIK3
T10 construct: purchased Reaction Biology Corporation
T10 sequence (Q9Y2K2 whole entry): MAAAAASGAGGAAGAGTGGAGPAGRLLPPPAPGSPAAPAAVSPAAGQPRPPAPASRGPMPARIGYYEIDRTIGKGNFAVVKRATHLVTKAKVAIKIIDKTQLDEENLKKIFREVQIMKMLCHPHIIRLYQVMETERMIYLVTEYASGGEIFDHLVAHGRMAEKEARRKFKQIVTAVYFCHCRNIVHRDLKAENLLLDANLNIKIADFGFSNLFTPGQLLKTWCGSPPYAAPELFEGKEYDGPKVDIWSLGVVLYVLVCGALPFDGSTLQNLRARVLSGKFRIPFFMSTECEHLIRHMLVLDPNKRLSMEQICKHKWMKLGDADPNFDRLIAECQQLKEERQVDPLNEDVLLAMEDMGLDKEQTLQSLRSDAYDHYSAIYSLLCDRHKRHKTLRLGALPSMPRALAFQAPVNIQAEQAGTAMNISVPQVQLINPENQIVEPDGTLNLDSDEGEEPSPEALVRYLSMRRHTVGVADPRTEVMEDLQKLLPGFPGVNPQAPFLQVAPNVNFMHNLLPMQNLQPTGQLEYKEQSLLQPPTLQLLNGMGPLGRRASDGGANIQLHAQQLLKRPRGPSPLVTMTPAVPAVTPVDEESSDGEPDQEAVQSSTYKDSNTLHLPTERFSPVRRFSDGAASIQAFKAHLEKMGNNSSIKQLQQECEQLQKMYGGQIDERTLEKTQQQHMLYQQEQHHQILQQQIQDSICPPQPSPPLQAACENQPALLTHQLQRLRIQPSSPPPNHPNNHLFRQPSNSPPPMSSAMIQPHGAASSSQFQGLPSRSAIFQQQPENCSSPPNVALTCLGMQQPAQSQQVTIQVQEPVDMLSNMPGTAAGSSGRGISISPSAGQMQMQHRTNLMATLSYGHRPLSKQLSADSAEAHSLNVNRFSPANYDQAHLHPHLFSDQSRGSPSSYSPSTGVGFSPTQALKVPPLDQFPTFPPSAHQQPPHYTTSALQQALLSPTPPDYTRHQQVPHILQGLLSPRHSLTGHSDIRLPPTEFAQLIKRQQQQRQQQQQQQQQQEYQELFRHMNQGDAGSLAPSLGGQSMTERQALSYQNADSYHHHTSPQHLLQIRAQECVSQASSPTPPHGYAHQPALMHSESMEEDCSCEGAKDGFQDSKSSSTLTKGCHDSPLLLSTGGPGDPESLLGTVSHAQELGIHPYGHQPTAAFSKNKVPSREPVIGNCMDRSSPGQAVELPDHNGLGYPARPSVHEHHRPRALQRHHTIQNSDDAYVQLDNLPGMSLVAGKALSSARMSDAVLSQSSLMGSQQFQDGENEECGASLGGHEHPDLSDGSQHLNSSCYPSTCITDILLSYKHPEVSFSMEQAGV

T2 sequence (P35916 25-1363): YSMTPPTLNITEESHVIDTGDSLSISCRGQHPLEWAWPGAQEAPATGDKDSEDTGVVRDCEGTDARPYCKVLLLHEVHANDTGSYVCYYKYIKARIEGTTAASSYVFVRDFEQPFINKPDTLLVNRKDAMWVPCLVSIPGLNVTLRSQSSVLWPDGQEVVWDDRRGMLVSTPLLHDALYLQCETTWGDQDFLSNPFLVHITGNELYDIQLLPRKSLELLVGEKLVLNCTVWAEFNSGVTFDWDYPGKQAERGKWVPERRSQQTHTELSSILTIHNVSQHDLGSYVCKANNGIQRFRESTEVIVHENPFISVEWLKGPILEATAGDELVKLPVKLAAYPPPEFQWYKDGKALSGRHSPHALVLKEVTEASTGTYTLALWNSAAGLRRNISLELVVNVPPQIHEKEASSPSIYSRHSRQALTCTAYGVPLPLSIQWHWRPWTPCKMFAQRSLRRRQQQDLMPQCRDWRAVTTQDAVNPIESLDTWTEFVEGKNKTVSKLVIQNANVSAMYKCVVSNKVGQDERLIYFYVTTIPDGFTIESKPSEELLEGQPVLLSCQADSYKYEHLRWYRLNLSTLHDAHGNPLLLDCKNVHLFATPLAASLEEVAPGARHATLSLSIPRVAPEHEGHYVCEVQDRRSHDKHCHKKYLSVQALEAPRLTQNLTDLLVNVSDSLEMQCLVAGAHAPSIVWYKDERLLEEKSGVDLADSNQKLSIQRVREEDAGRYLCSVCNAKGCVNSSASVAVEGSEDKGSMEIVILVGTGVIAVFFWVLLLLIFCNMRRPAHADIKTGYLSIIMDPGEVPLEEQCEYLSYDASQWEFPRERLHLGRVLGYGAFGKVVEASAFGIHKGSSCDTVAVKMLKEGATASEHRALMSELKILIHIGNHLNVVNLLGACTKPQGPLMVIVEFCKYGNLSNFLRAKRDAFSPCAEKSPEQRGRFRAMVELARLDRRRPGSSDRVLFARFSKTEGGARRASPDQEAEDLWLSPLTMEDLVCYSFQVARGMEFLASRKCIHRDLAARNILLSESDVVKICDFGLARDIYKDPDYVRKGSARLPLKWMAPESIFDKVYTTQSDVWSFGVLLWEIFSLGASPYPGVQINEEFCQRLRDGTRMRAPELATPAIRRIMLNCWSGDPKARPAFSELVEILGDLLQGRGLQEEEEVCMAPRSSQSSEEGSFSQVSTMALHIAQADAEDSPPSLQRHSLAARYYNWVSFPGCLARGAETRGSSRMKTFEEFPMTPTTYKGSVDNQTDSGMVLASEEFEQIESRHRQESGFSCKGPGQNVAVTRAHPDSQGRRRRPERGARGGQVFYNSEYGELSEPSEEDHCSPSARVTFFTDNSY
T1 sequence (O60674 whole entry): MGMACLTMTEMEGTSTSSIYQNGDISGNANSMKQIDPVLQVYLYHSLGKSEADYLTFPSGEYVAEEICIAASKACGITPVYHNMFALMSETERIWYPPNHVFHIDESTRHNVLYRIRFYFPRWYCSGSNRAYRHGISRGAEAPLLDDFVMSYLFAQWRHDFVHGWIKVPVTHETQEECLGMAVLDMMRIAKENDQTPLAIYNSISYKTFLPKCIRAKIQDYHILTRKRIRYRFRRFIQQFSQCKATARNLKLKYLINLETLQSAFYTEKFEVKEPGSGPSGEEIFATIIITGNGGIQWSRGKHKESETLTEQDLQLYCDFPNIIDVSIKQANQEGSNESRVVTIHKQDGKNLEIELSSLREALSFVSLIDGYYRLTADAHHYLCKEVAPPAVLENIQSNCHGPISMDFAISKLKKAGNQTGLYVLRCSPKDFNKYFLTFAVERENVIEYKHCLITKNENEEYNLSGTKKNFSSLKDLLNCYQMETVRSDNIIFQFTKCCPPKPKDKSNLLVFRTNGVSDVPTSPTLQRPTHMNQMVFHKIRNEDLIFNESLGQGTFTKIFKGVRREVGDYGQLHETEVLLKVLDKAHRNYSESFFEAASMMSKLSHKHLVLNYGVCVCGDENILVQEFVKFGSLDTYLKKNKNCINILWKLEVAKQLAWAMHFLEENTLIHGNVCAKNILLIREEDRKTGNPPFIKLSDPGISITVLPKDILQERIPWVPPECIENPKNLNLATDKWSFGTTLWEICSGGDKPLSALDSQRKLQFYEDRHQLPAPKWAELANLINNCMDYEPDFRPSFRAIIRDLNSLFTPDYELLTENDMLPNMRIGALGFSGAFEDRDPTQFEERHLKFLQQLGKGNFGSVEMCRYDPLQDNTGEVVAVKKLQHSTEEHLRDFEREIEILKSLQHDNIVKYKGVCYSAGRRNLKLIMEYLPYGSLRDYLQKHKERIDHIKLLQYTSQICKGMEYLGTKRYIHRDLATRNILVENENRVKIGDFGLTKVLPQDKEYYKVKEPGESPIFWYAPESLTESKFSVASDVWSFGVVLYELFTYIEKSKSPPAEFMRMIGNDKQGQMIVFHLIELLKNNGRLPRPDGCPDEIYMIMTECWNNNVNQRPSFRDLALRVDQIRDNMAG
T6 sequence (Q96RG2 whole entry): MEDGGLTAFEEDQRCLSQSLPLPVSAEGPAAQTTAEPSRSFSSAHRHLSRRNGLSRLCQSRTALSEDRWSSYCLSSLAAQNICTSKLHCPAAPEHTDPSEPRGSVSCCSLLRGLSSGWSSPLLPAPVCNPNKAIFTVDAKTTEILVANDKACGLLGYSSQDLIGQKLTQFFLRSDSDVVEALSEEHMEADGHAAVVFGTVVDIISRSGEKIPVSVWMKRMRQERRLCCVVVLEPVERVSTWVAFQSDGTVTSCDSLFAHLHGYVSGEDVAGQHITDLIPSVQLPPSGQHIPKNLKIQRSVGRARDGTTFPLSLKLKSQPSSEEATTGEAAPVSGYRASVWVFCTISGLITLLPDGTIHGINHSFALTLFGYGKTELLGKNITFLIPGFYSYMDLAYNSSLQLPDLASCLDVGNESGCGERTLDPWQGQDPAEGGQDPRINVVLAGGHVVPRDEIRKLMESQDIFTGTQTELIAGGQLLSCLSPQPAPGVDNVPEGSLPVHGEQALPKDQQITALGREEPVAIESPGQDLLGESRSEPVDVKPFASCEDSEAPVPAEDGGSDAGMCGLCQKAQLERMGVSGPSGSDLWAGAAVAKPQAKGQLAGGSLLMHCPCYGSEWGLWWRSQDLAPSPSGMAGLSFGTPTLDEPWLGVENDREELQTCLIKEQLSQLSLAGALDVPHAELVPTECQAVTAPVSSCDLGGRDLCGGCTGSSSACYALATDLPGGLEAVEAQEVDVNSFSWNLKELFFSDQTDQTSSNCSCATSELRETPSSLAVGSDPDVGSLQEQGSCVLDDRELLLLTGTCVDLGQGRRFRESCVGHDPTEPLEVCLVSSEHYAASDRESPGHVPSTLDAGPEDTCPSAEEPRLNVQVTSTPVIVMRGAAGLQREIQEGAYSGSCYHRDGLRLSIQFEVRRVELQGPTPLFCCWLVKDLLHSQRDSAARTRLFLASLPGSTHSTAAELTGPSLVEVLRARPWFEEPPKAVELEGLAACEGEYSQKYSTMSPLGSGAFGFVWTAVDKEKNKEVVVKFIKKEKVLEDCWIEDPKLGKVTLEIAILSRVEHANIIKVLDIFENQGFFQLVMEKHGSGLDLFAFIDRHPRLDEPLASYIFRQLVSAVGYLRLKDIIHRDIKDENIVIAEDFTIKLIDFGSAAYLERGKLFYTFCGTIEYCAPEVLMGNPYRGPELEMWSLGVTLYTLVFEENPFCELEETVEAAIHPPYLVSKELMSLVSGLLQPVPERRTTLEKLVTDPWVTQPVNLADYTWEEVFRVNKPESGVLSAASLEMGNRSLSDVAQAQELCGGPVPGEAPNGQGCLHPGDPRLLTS

Row | Compound | remaining activity at 5 µM [1] | remaining activity at 5 µM [2] | remaining activity at 5 µM [3] | remaining activity at 5 µM [4] | remaining activity at 5 µM [5] | remaining activity at 5 µM [6] | remaining activity at 5 µM [7] | remaining activity at 5 µM [8] | remaining activity at 5 µM [9] | remaining activity at 5 µM [10] | remaining activity at 10 µM ([1]; 10 uM) | remaining activity at 10 µM ([2]; 10 uM) | remaining activity at 10 µM ([3]; 10 uM) | remaining activity at 10 µM ([4]; 10 uM) | remaining activity at 10 µM ([5]; 10 uM) | remaining activity at 10 µM ([6]; 10 uM) | remaining activity at 10 µM ([7]; 10 uM) | remaining activity at 10 µM ([8]; 10 uM) | remaining activity at 10 µM ([9]; 10 uM) | remaining activity at 10 µM ([10]; 10 uM)
1 | O=C(Nc1cnn(-c2csc(C(=O)NC3COC3)c2)c1)Nc1c(F)cccc1Cl [Compound 25, 4-(4-(3-(2-chloro-6-fluorophenyl)ureido)-1H-pyrazol-1-yl)-N-(oxetan-3-yl)thiophene-2-carboxamide] | 96.5% | 86.6% | 96.1% | 101% | 92.9% | 99.7% | 92.6% | 71.4% | 98.8% | 94.5% |  |  |  |  |  |  |  |  |  | 
2 | O=C(Nc1cnn(-c2csc(C(=O)NC3COC3)c2)c1)Nc1ccccc1Cl [Compound 17, 4-(4-(3-(2-chlorophenyl)ureido)-1H-pyrazol-1-yl)-N-(oxetan-3-yl)thiophene-2-carboxamide] | 98.2% | 93.8% | 79.2% | 101% | 91.9% | 96.3% | 102% | 98.3% | 102% | 92.4% |  |  |  |  |  |  |  |  |  | 
3 | Cc1sc(C(=O)NC2COC2)cc1-n1cc(NC(=O)Nc2c(F)cccc2Cl)cn1 [Compound 27, 4-(4-(3-(2-chloro-6-fluorophenyl)ureido)-1H-pyrazol-1-yl)-5-methyl-N-(oxetan-3-yl)thiophene-2-carboxamide] |  |  |  |  |  |  |  |  |  |  | 95% | 81.9% | 112% | 100% | 113% | 96.1% | 103% | 72.4% | 97.8% | 86.9%
